# Measurements from the PolyMetriX glass transition set.
# ± gives the standard deviation of the reports.
row,glass transition temperature [°C],SMILES
1,273.00,*C(=O)Nc1ccc(Cc2ccc(NC(=O)c3ccc4c(c3)C(=O)N(c3ccc(Oc5ccc6ccc(Oc7ccc(N8C(=O)c9ccc(*)cc9C8=O)cc7)cc6c5)cc3)C4=O)cc2)cc1 (repeat unit)
2,52.00,*CCCCCNC(=O)CCCCCCCCCCCCCCCCCCC(=O)N* (repeat unit)
3,148.00,*C1C2CC(CCCCc3ccccc3)C(C2)C1* (repeat unit)
4,47.00,*CCCCCCOc1ccc(C(=O)OC(=O)c2ccc(O*)cc2)cc1 (repeat unit)
5,126.00,*CC(*)c1cc(C(=O)OC)ccc1-c1ccc(OCCCCCCCC)cc1 (repeat unit)
6,199.00,*c1ccc2c(c1)C(=O)N(c1cc(C(c3ccc(OCCN(CC)c4ccc(/N=N/c5ccc([N+](=O)[O-])cc5)cc4)c(N4C(=O)c5ccc(C(*)(C(F)(F)F)C(F)(F)F)cc5C4=O)c3)(C(F)(F)F)C(F)(F)F)ccc1OCCN(CC)c1ccc(/N=N/c3ccc([N+](=O)[O-])cc3)cc1)C2=O (repeat unit)
7,316.50,*C(=O)c1ccc2c(c1)C(=O)N(c1ccc(C(C)(C)c3cccc(C(C)(C)c4ccc(N5C(=O)c6ccc(*)cc6C5=O)cc4)c3)cc1)C2=O (repeat unit)
8,29.20,*O[Si](*)(C)CCCCCCCCCCC(=O)Oc1ccc(-c2ccc(OC(=O)c3ccc(OCC(C)CC)cc3)cc2)cc1 (repeat unit)
9,10.00,*CCN(*)C(=O)CCCCCCCCCCC (repeat unit)
10,147.00,*Oc1ccc(-c2ccc(Oc3ccc(Oc4ccc(Oc5ccc(*)cc5)cc4)cc3)c3ccccc23)c2ccccc12 (repeat unit)
11,94.50,*CCCCCCCCCCn1c2ccccc2c2cc(/C=C(\C#N)C(=O)OCCCCCCOC(=O)/C(C#N)=C/c3ccc4c(c3)c3ccccc3n4*)ccc21 (repeat unit)
12,46.00,*/C=C/C1CC(*)C2C(=O)N(CCCCCCCCCC)C(=O)C12 (repeat unit)
13,223.00,*/C=C/c1ccc(*)c(OCc2cc(OCc3cc(OCCC(C)CCCC(C)C)cc(OCCC(C)CCCC(C)C)c3)cc(OCc3cc(OCC(CC)CCCC)cc(OCC(CC)CCCC)c3)c2)c1 (repeat unit)
14,82.70,*Oc1ccc(OC(=O)c2ccc(OCCCCCCCCCCCCOc3ccc(C(*)=O)cc3)cc2)cc1S(=O)(=O)c1ccccc1 (repeat unit)
15,19.00,*CC(*)(C)C(=O)Oc1ccc(/N=N/c2ccc(OCCCCCCCCCCCOC(=O)c3ccc4c(c3)OCCOCCOCCOCCO4)cc2)cc1 (repeat unit)
16,33.00,*/C=C/c1ccc(/C=C/[Si](C)(C)c2cccc([Si](*)(C)C)c2)cc1 (repeat unit)
17,420.00,*c1ccc2c(c1)C(=O)N(c1c(C)c(C)c(N3C(=O)c4ccc(C(*)(C(F)(F)F)C(F)(F)F)cc4C3=O)c(C)c1C)C2=O (repeat unit)
18,103.00,*CCCCOC(=O)C(Cc1ccccc1)NC(=O)/C=C/C(=O)NC(Cc1ccccc1)C(=O)O* (repeat unit)
19,23.10,*/C=C/C1CC(*)C(C(=O)OCCCCCCCCCCCOc2ccc(-c3ccc(C#N)cc3)cc2)C1C(=O)OCCCCCCCCCCCOc1ccc(-c2ccc(C#N)cc2)cc1 (repeat unit)
20,147.00,*CCN(CCOC(=O)c1cccc(C(=O)O*)c1)c1ccc(/N=N/c2ccc(-c3nc4ccc([N+](=O)[O-])cc4n3CC)cc2)cc1 (repeat unit)
21,31.00,*C(=O)OCCCSCCCCCCSCCCOC(=O)c1ccc(N2C(=O)c3ccc(*)cc3C2=O)cc1 (repeat unit)
22,263.00,*c1ccc(Oc2ccc(NC(=O)CN3C(=O)c4ccc(C(c5ccc6c(c5)C(=O)N(CC(=O)Nc5ccc(Oc7ccc(-c8nnc(*)o8)cc7)cc5)C6=O)(C(F)(F)F)C(F)(F)F)cc4C3=O)cc2)cc1 (repeat unit)
23,270.00,*c1cccc(-c2cc(C(=O)Nc3ccc(OC(=O)c4cc(OCCCCCCCCCCCC)c(OCCCCCCCCCCCC)c(OCCCCCCCCCCCC)c4)cc3)cc(-c3cccc(N4C(=O)CC(C5C=C(C)C6C(=O)N(*)C(=O)C6C5)C4=O)c3)c2)c1 (repeat unit)
24,215.00,*c1ccc(Oc2c(F)c(F)c(C(=O)c3c(F)c(F)c(Oc4ccc(C5(*)OC(=O)c6ccccc65)cc4)c(F)c3F)c(F)c2F)cc1 (repeat unit)
25,230.00,*CC(=O)Nc1ccc(Oc2ccc(Oc3ccc(NC(=O)CN4C(=O)c5ccc(C(=O)c6ccc7c(c6)C(=O)N(*)C7=O)cc5C4=O)cc3)cc2)cc1 (repeat unit)
26,275.00,*c1ccc(-c2ccc(N3C(=O)c4ccc(Oc5ccc6c(c5)C(=O)N(*)C6=O)cc4C3=O)cc2C(F)(F)F)c(C(F)(F)F)c1 (repeat unit)
27,268.00,*Nc1cccc(C#Cc2ccc(NC(=O)c3cccc(C(*)=O)c3)cc2)c1 (repeat unit)
28,159.00,*CCN(CCOC(=O)Nc1ccc(C)c(NC(=O)O*)c1)c1ccc(/N=N/c2ccc(B(c3c(C)cc(C)cc3C)c3c(C)cc(C)cc3C)cc2)cc1 (repeat unit)

row,glass transition temperature [°C],SMILES
1,171.00,*Oc1ccccc1Oc1ccc(S(=O)(=O)c2ccc(*)cc2)cc1 (repeat unit)
2,293.00,*C(=O)Nc1cccc(NC(=O)c2ccc3c(c2)C(=O)N(c2ccc(Oc4cccc5c(N6C(=O)c7ccc(*)cc7C6=O)cccc45)cc2)C3=O)n1 (repeat unit)
3,173.00,*Oc1ccc(C(CC)(c2ccccc2)c2ccc(OC(*)=S)cc2)cc1 (repeat unit)
4,340.00,*c1ccc(Cc2ccc(N3C(=O)C4CCC5C(=O)N(*)C(=O)C5C4C3=O)c(C)c2)cc1C (repeat unit)
5,17.00,*Oc1ccc(CC(NC(=O)CCc2ccc(OC(=O)COCCOCC(*)=O)cc2)C(=O)OCCCCCCCCCCCC)cc1 (repeat unit)
6,210.00,*c1ccc(Oc2ccc(S(=O)(=O)c3ccc(Oc4ccc(-c5ncc(*)o5)cc4C(F)(F)F)cc3)cc2)c(C(F)(F)F)c1 (repeat unit)
7,123.00,*CCCNC(=O)C(OC)C(OC)C(=O)N* (repeat unit)
8,37.00,*/C=C/c1ccc(OC(=O)CCCCCCCCC(=O)Oc2cccc(-c3nnc(*)s3)c2)cc1 (repeat unit)
9,152.00,*CCN(CCOC(=O)c1ccc(C(=O)O*)c(OCCC)c1)c1ccc(/N=N/c2nc(C#N)c(C#N)[nH]2)cc1 (repeat unit)
10,271.00,*C(=O)c1ccc2nc(-c3ccccc3)c(-c3ccc(Oc4ccc(-c5nc6cc(*)ccc6nc5-c5ccccc5)cc4)cc3)nc2c1 (repeat unit)
11,231.00,*C(=O)Nc1ccc(Oc2ccc(C(c3ccc(Oc4ccc(NC(=O)c5ccc6c(c5)C(=O)N(c5ccc(Oc7cccc8c(Oc9ccc(N%10C(=O)c%11ccc(*)cc%11C%10=O)cc9)cccc78)cc5)C6=O)cc4)cc3)(C(F)(F)F)C(F)(F)F)cc2)cc1 (repeat unit)
12,61.30,*O[Si](*)(C)CCCOc1ccc(C(=O)Oc2ccc(-c3ccc(OC(=O)c4cc(OCC)c(OCC)c(OCC)c4)cc3)cc2)cc1 (repeat unit)
13,158.00,*CCCCCC(=O)Nc1ccc(Oc2ccc(Oc3ccc(NC(=O)CCCCCN4C(=O)c5ccc(C(=O)c6ccc7c(c6)C(=O)N(*)C7=O)cc5C4=O)cc3)cc2)cc1 (repeat unit)
14,187.00,*Oc1ccc(S(=O)(=O)c2ccc(Oc3c(C)cc(C(C)(C)c4cc(C)c(*)c(C)c4)cc3C)cc2C(O)(C(F)(F)F)C(F)(F)F)c(C(O)(C(F)(F)F)C(F)(F)F)c1 (repeat unit)
15,114.00,*CC(*)c1ccc(C(=O)N2CCCCC2)cc1 (repeat unit)
16,50.50,*Oc1cc(CCCCCCCC)cc(OC(=O)c2cccc(C(*)=O)c2)c1 (repeat unit)
17,262.50,*C(=O)c1cccc(C(=O)c2ccc3c(c2)C(=O)N(c2ccc(C(c4ccc(N5C(=O)c6ccc(*)cc6C5=O)cc4)(C(F)(F)F)C(F)(F)F)cc2)C3=O)c1 (repeat unit)
18,243.00,*c1ccc(Cc2ccc(NC(=O)c3cccc(Oc4ccc5c(c4)C(=O)N(*)C5=O)c3)cc2)cc1 (repeat unit)
19,249.00,*=Nc1ccc(C(C)(C)c2ccc(C(C)(C)c3ccc(/N=C4/OC(=O)c5ccc(Oc6ccc7c(c6)C(=O)OC7=*)cc54)cc3)cc2)cc1 (repeat unit)
20,-43.00,*CC(COC(F)(C(F)(F)F)C(F)(F)F)O* (repeat unit)
21,214.00,*Oc1ccc(C(=O)Nc2cc(C(c3ccc(C)c(NC(=O)c4ccc(OC(=O)c5cccc(C(*)=O)c5)cc4)c3)(C(F)(F)F)C(F)(F)F)ccc2C)cc1 (repeat unit)
22,76.00,*CCCCCCOc1ccc(/C=C/c2ccc(O*)cc2)cc1 (repeat unit)
23,49.00,*OC(=O)OCCCCOC(=O)OC1COC2C(*)COC12 (repeat unit)
24,68.00,*CCCCCCCCCNC(=O)CCCCC(=O)N* (repeat unit)
25,194.00,*c1ccc(*)c(C(=O)c2ccc(F)cc2)c1 (repeat unit)
26,192.50,*OC(=O)c1ccc(C(=O)OC2COC3C(*)COC23)o1 (repeat unit)
27,169.00,*c1ccc(Oc2ccc(C3(c4ccc(Oc5ccc(-c6ccc(*)s6)cc5C(F)(F)F)cc4)c4ccccc4-c4ccccc43)cc2)c(C(F)(F)F)c1 (repeat unit)

row,SMILES,glass transition temperature [°C]
1,*CC(*)(C)c1ccc2ccccc2n1 (repeat unit),193.00
2,*c1cccc(P(=O)(c2ccccc2)c2cccc(-n3c(=O)c4cc5c(=O)n(*)c(=O)c5cc4c3=O)c2)c1 (repeat unit),331.00
3,*OC(C)C(=O)OCC(*)=O (repeat unit),43.00
4,*CCCCCCCCCCCC(=O)N* (repeat unit) [Poly(dodecano-12-lactam)],38.4 ± 3.2
5,*C#Cc1cccc(C#C[SiH](*)C)c1 (repeat unit),72.00
6,*OC(*)CCC (repeat unit),-41.00
7,*CCCCCCNC(=O)C(=O)N* (repeat unit),250.00
